Literature values, collected in patent US4310517A, “Tumor-resolving and histolytic medicaments and their use” (Troponwerke GmbH & Co., KG, priority 1976, dated 1982).
Like-named read-outs stand apart in the source and are kept apart here.

Test system: tumour cells

O=P1(N(CCCl)CCCl)NCCCO1 (centres unmarked) [cyclophosphamide]
tumour cells destroyed (LD10 dosage): 99.999% | tumour cells destroyed (one eighth of the LD10 dose): 90%
